Source: US20100297015A1, “CANCER BIOMARKER AND USES THEREOF” (priority 2007, published 2010)

How the values were obtained:
[1] = test system: GTPCH; details: competes with GTP, a substrate for GTPCH (Gross and Levi 1992); cited from earlier work
[2] = test system: human GTPCH; test: GCH1 siRNA transfection of GCHtet-off and MCF7 cells, expression of GTPCH and phosphor-Akt; type: cell-based; details: 10 nM siRNA, Lipofactamine RNAiMAX, 48 hours
Description: GCHtet-off cells (described above) and MCF7 cells (4×10^5/well) were cultured in a 24-well plate and transfected with 10 nM of GCH1 siRNA (comprising the sequences of Seq ID Nos: 1 and 2) and scramble siRNA (SCR), respectively using Lipofactamine RNAiMAX. After 48 hours, the cells were harvested and the expression of human GTPCH, phosphor-Akt and GAPDH was determined. The results are illustrated in FIG. 8. A correlation between human GTPCH expression and phosphor-Akt was observed.

Row | Molecule | GTPCH protein activity [1] | Akt phosphorylation [2] | GTPCH expression [2]
1 | Nc1cc(O)nc(N)n1 [DAHP, 2,4-diamino-6-hydroxypyrimidine] | inhibits GTPCH protein activity |  | 
2 | GCH1 siRNA: siRNA comprising the sequences of Seq ID Nos: 1 and 2, designed to reduce GTPCH expression (chain 1 CCUAAACGAUGCUAUAUUUTT; chain 2 AAAUAUAGCAUCGUUUAGGTT; chemistry not given here) |  | Reduction | Downregulated
